Reference: ChEMBL document CHEMBL5584244, “Discovery of novel pyrrolo[2,1-c][1,4]benzodiazepine-3,11-dione (PBD) derivatives as selective HDAC6 inhibitors for the efficient treatment of idiopathic pulmonary fibrosis (IPF) in vitro and in vivo” (Eur J Med Chem, 2024)
The source made the active and inactive calls. No cut-off for these calls is given here.

Tests used:
[1] = target: Histone deacetylase 4 (Homo sapiens, UniProt P56524); experiment: Inhibition of recombinant human HDAC4 using Boc-Lys (Ac)-AMC as substrate incubated for 120 mins by fluorescence analysis
Histone deacetylase 4, sequence (P56524 whole entry): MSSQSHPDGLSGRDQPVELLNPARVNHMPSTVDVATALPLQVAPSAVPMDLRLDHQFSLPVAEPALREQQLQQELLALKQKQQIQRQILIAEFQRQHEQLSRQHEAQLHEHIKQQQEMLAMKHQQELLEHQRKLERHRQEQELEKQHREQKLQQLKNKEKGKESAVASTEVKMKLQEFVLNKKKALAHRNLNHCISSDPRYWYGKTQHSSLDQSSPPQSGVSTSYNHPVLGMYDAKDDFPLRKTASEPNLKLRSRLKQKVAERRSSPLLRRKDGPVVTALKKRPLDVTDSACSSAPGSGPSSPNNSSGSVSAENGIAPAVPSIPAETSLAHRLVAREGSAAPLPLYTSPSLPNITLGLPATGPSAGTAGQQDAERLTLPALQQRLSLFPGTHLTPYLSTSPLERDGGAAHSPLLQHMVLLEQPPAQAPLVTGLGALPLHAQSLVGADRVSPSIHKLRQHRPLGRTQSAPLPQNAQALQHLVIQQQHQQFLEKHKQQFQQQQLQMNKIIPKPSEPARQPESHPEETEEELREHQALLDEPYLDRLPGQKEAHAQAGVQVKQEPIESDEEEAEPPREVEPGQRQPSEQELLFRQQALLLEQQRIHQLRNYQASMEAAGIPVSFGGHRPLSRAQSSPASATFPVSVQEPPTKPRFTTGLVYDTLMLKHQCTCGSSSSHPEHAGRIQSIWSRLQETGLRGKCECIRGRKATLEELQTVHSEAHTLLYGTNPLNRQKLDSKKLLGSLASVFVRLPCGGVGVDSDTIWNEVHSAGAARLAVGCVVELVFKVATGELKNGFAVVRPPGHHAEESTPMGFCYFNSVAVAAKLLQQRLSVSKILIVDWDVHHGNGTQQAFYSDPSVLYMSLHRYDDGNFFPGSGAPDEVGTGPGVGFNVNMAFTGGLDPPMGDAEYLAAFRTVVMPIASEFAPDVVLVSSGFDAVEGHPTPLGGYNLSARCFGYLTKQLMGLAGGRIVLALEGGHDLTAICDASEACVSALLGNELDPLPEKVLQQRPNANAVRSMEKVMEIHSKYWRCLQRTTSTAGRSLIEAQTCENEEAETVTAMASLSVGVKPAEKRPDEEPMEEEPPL

[2] = target: T1, Histone deacetylase 11 (Homo sapiens, UniProt Q96DB2); experiment: Inhibition of recombinant human full length HDAC11 using Boc-Lys (Tfa)-AMC as substrate incubated for 120 mins by fluorescence analysis
T1 sequence (Q96DB2 whole entry): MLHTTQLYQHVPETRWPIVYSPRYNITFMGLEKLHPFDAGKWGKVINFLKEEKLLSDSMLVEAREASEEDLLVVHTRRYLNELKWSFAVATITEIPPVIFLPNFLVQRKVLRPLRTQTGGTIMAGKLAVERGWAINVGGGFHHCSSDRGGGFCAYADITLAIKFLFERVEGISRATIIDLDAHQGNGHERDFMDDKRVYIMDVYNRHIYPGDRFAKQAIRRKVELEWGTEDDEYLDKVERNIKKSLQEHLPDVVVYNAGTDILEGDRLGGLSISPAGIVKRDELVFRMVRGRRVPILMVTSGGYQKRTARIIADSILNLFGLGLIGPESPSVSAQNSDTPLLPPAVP

[3] = species on record: Homo sapiens; experiment: Selectivity index, ratio IC50 for C-terminal His6/Flag-tagged recombinant human full length HDAC1 to IC50 for inhibition of recombinant human full length HDAC6
[4] = system: HELF; experiment: Antifibrotic activity against TGF-beta1-induced HELF cells assessed as reduction in viability after 48 hrs by MTT assay; type: functional, cell-based; details: Homo sapiens, dose 2.5-10 µM
[5] = Cytotoxicity against HELF cells assessed as reduction in viability at 2.5 to 10 uM after 48 hrs by MTT assay; type: toxicity, cell-based; details: human, dose 2.5-10 µM
[6] = Cytotoxicity against HELF cells assessed as reduction in viability at 1 to 300 uM after 48 hrs under without FBS condition by MTT assay; type: toxicity, cell-based; details: human, dose 1-300 µM
[7] = target: T2, Protein deacetylase HDAC6 (Homo sapiens) (UniProt Q9UBN7); experiment: Inhibition of HDAC6 in TGF-beta1-induced HELF cells by fluorescence based microplate reader analysis; type: cell-based; details: dose 2.5-10 µM
T2 sequence (whole entry): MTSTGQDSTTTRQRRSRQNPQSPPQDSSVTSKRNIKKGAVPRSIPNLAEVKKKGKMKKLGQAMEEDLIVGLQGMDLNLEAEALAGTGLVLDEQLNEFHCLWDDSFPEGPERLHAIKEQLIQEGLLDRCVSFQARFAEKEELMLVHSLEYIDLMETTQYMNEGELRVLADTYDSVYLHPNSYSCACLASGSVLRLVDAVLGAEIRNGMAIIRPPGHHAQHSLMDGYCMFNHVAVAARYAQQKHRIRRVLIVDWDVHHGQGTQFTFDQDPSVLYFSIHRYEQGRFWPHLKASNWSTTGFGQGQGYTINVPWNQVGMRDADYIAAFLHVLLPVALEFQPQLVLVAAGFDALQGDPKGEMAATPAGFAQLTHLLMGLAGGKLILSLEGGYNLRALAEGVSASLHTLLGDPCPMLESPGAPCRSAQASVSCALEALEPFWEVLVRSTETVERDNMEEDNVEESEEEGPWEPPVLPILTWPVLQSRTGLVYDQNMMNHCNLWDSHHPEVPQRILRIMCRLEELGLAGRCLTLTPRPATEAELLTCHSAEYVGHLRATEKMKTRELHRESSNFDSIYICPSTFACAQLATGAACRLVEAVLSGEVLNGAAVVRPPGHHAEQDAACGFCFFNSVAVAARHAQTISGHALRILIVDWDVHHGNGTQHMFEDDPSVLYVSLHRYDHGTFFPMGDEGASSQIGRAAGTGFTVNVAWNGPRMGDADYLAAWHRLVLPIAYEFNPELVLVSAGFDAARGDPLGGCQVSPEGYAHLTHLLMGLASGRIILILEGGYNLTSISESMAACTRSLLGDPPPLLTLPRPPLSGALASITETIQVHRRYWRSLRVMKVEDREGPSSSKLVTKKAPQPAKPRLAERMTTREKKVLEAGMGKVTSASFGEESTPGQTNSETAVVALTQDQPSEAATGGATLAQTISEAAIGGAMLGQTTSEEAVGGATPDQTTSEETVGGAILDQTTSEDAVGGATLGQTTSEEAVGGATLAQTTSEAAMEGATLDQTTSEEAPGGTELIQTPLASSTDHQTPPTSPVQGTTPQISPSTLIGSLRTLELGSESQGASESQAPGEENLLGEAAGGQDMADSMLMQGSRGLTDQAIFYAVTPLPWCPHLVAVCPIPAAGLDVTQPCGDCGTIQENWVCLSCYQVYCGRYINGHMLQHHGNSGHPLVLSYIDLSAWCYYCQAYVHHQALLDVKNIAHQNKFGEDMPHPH

[8] = target: T3, TGF-beta receptor type-1 (Homo sapiens) (UniProt P36897); experiment: Inhibition of TGF-beta1-induced TGFbetaR1 protein phosphorylation level in HELF cells incubated for 48 hrs by Western blot analysis; type: cell-based; details: dose 2.5-10 µM
T3 sequence (whole entry): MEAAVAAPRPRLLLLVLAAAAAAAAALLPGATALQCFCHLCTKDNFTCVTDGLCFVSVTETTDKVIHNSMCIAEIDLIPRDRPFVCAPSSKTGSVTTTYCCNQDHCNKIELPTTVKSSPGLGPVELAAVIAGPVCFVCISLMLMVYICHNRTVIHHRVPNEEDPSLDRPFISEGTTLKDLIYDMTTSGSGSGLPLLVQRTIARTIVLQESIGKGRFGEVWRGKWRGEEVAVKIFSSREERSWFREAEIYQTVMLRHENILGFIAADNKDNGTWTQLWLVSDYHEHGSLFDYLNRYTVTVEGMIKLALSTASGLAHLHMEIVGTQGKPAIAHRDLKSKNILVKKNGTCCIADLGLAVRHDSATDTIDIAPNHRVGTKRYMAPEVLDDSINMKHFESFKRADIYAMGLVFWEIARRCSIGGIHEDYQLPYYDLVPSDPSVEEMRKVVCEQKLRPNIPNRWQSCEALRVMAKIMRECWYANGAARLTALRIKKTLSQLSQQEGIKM

[9] = Half life in human plasma at 2 uM by LC-MS/MS analysis; type: ADME, cell-free
[10] = system: Mus musculus; experiment: Anti-pulmonary fibrosis activity in bleomycin-induced C57BL/6 mouse model of pulmonary fibrosis assessed as recovering mental state at 50 to 100 mg/kg, ip for 3 weeks; type: functional, organism-based; details: dose 50-100 mg/kg
[11] = system: Mus musculus; experiment: Anti-pulmonary fibrosis activity in bleomycin-induced C57BL/6 mouse model of pulmonary fibrosis assessed as decrease in disturbance of alveolar structure in lung at 50 to 100 mg/kg, ip for 3 weeks by H and E staining based fluorescence microscopic analysis; type: functional, organism-based; details: dose 50-100 mg/kg
[12] = system: Mus musculus; experiment: Anti-pulmonary fibrosis activity in bleomycin-induced C57BL/6 mouse model of pulmonary fibrosis assessed as decrease in collagen level in lung at 50 to 100 mg/kg, ip for 3 weeks by Masson trichrome staining based microscopic analysis; type: functional, organism-based; details: dose 50-100 mg/kg
[13] = system: Mus musculus; experiment: Anti-pulmonary fibrosis activity in bleomycin-induced C57BL/6 mouse model of pulmonary fibrosis assessed as decrease in collagen fiber deposition in lung at 50 to 100 mg/kg, ip for 3 weeks by Masson trichrome staining based microscopic analysis; type: functional, organism-based; details: dose 50-100 mg/kg

CC(=O)O.O=C(NO)c1ccc(CN2C(=O)[C@@H]3CCCN3Cc3ccccc32)cc1
IC50 [1]: 847 nM | IC50 [2]: > 50000 nM | Ratio IC50 [3]: 97.9 | Activity [4]: Dose-Dependent Effect | Activity [5]: Non-Toxic | Activity [6]: Toxic | inhibition [7]: Dose-Dependent Effect | inhibition [8]: Dose-Dependent Effect | half-life at 2 µM [9]: > 4.82 h | Activity [10]: Active | Activity [11]: Active | Activity [12]: inactive | Activity [13]: Active
